From patent US10858305B2, “Perillyl alcohol-3-bromopyruvate conjugate and methods of treating cancer” (NeOnc Technologies, Inc., priority 2016, dated 2020)
“Also recorded” adds a separate entry of the source. Read-outs that look alike come from different tables or passages of the source.

Assays:
[1] = test system: cleaved caspase 7, cleaved PARP, γ-H2AX in MCF7, MDA-MB-231 and HCT116 cells; test: Western blot for apoptosis markers; format: cell-based, human; conditions: STS as positive control
Description: (A) FACS analysis of HCT116 cells after treatment for 2, 4, or 8 hours with vehicle, 30 μM 3-BP, 30 μM NEO218, or 1 μM staurosporine (STS). […] (B) Western blot analysis of apoptotic markers. In the top section, MDA-MB-231 cells were treated with 30 μM NEO218 or 1 μM STS for various time points. In the lower section, HCT116 cells were treated with the indicated concentrations of 3-BP, NEO218, or STS for 16 hours. In all cases cell lysates were prepared and analyzed for the well-established apoptotic markers cleaved PARP, cleaved (i.e., activated) caspase 7 (cl. C-7), and phosphorylated (i.e., active) H2AX. Actin was used as a loading control. (C) HCT116 cells were pretreated with 50 μM Z-VAD-FMK for one hour, followed by the addition of increasing concentrations of 3-BP or NEO218. Cell viability was determined by MTT assay 24 hours later. Data points are averages from n=3.
The capacity for NEO218 to induce apoptosis was evaluated in a series of experiments. Three different cell lines were treated 3-BP and NEO218. Drug-treated cells were harvested, and cellular lysates were analyzed by Western blot for the presence of the three well-established markers of apoptosis: • cleaved caspase 7 (cl. C7); • cleaved (cl.) vs. full-length (f.l.) PARP; and, • induction of γ-H2AX (which indicates DNA cleavage).
The appearance of cl. C7 and cl. PARP is indicative of ongoing apoptotic processes. In all cases, lysates were also probed for the presence of actin as a control.
Two breast cancer cell lines (MCF7 and MDA-MB-231) and one colon cancer cell line (HCT116) were treated with increasing concentrations of NEO218 or 3-BP. As a control, they were also treated with staurosporine (STS), a known potent inducer of apoptosis. Western blot analyses for the presence of apoptosis markers are shown in the left panels of FIG. 6.
Total cell lysates were analyzed by Western blot analysis as described earlier. Primary antibodies against cleaved caspase 7 and PARP were obtained from Cell Signaling Technology (Danvers, Mass.), and antibodies against actin (C-11) and MCT1 (H-1) were obtained from Santa Cruz Biotechnology (Santa Cruz, Calif.). All antibodies were used according to the manufacturers' recommendations, except that in the case of MCT1 detection, the boiling step was omitted before loading the samples onto the polyacrylamide gel. All immunoblots were repeated at least once to confirm the results.

[2] = test system: HCT116 3-BP survivors (MCT-1-negative) and parental cells; test: Selection of 3-BP survivors from HCT116 cells and MTT chemosensitivity; format: cell-based, human
Description: (A) Immunostaining of HCT116 cells in the absence of any drug treatment (parental cells; left panel) and after 2-week recovery from highly toxic 48-hour treatment with 40 μM 3-BP (3-BP survivors; right panel). Arrows point to a few apparently MCT-1-negative cells among the otherwise MCT-1-positive parental population. Note preferential staining of the cell membrane in the positive cells, consistent with the known transmembrane location of MCT-1; no such staining could be detected in the 3-BP survivors. (B) Western blot analysis of MCT-1 expression levels two weeks after 48-hour treatment of cells with increasing concentrations of 3-BP. […] GAPDH was used as a loading control. (C) Chemosensitivity of 3-BP survivors were compared to parental cells in MTT assays. Both populations were treated with increasing concentrations of 3-BP or NEO218. Survival of untreated cells was set at 100% (n≥3±SE).
Upon closer inspection of individual cells by immunohistochemistry, we detected a small number of apparently MCT-1-negative cells among the otherwise mostly MCT-1-positive population (FIG. 20A). This aspect was investigated further by treating HCT116 cells with 40 μM, representing a concentration that reduces apparent viability by 75% in MTT assays (FIG. 17A) and blocks colony formation by 99% in CFAs. […] These cells, which we called 3-BP survivors, were further analyzed. Intriguingly, no MCT-1 expression could be detected in these cells, neither by immunohistochemistry (FIG. 20A) nor by Western blot (FIG. 20B). […] Intriguingly, NEO218 had no such effect.

HCT116 cells = test: cells; conditions: Homo sapiens; for IC50: HCT-116, 24 h, read-out: half-maximal effect, MTT assay
Description: (A) MTT assay was performed after 24 hours. Viability of untreated cells was set at 100% (n=3).
Methylthiazoletetrazolium (MTT) assays were performed as described earlier [38]. Briefly, cells were seeded into 96-well plates at 2.0 to 8.0×10^3 cells per well and exposed to drug treatment (or solvent alone) for 24 or 48 hours. In individual experiments, each treatment condition was set up in triplicate, and each experiment was repeated several times independently.

[3] = test system: HCT116, LN229, T98G, U251, MCF7, T47D, MDA-MB-231, MDA-MB-468, BTM-12, ME16C cells; test: 24-hour MTT assay in 10 cell lines with MCT-1 levels (FIGS. 16A-16C); format: cell-based; conditions: Homo sapiens, read-out: IC50 (concentration of drug that kills 50% of the cell population)
Excerpt: The following established human cell lines were used: (A) HCT116 colon carcinoma; (B) LN229, T98G, and U251 glioblastoma; (C) MCF7, MDA-MB-231, MDA-MB-468, BTM-12, and T47D breast carcinoma; and ME16C normal mammary gland epithelium cells (immortalized with telomerase). […] Bars with error bars represent ≥3 measurements, whereas graphs without error bars show the average of two independent measurements. The middle panels show MCT-1 protein levels for each cell line, as determined by Western blot with actin as the loading control.
Methylthiazoletetrazolium (MTT) assays were performed as described earlier.
Because it was reported that the cytotoxic effects of 3-BP in vitro depend on the presence of MCT-1, we began our study by characterizing MCT-1 expression levels along with cytotoxicity of 3-BP in the various tumor cell lines to be used in our study. We included one colon carcinoma cell line (HCT116), three glioblastoma cell lines (LN229, T98G, U251), four breast cancer cell lines (MCF7, T47D, MDA-MB-231, MDA-MB-468), one culture of primary breast cancer cells (BTM-12), and an established line of normal breast epithelial cells (ME16C). For all 10 cell lines, we established IC50 (concentration of drug that kills 50% of the cell population) by MTT assay, along with MCT-1 protein levels by Western blot analysis. As summarized in FIGS. 16A-16C, MCT-1 levels varied greatly in the different cells, and so did their IC50 values.

SMILES: O=C(O)C(=O)CBr [3-BP, 3-bromopyruvate]
- induction of apoptosis markers (cleaved PARP, cleaved caspase 7, γ-H2AX) [1]: responded only minimally, if at all
- IC50 ([2]; Homo sapiens, HCT-116, read-out: IC50 (MTT)): > 100 µM
- IC50 (HCT116 cells): ~18 µM
- cytotoxicity at 40 µM (HCT116 cells; HCT-116, read-out: reduction of apparent viability in MTT assay): 75%
- IC50 ([3]; 24 h, cells with high MCT-1 levels (HCT116, U251, ME16C, MDA-MB-468), 24 hours): 15 to 60 µM
- IC50 ([3]; 24 h, cells with lesser MCT-1 levels, 24 hours): 150 to 300 µM

SMILES: C=C(C)[C@@H]1CC=C(COC(=O)C(=O)CBr)CC1 [NEO218, 3-bromo-2-oxo-propionic acid 4-isopropenyl-cyclohex-1-enylmethyl ester]
- induction of apoptosis markers (cleaved PARP, cleaved caspase 7, γ-H2AX) [1]: responded only minimally, if at all; also recorded: barely affects these same markers
- sensitivity of 3-BP survivors ([2]; 3-BP survivors of HCT116, MTT): retained their high sensitivity toward NEO218
- surviving cells after treatment ([2]; parental HCT116, 40 μM): did not leave any surviving cells
- IC50 (HCT116 cells): ~18 µM
- IC50 ([3]; all 10 cell lines, irrespective of MCT-1 expression): 15 to 25 µM
